Entries after “also recorded” stand apart in the source; their conditions may differ. Read-outs that look alike come from different tables or passages of the source. No end group written: not given here.
Legend:
PI3Kγ = test: Gβ1γ2-dependent activation of purified p101/p110 PI3Kγ; type: biochemical
Experimental: (§1) Purified PLCβ2 (0.25 ng) was assayed in the presence (▴) or absence (▪) of 100 nM purified Gβ1γ2. […] Assays contained 10 ng of purified p101/p110 PI3Kγ heterodimer with or without 100 nM purified Gβ1γ2. Left panel: (▴) 100 nM Gβ1γ2 or (▪) no βγ. […] M119 or M201 and 25 nM purified GRK2 were added simultaneously to 250 nM biotinylated Gβ1γ2 (bGβ1γ2) immobilized on streptavidin agarose. GRK2 was detected with antibody to GRK2. Data are representative (mean ±SEM, except D) repeated at least three times each. […] 30 nM bGβ1γ2 was incubated with either 30 nM PLCβ2 or PLCβ3 in the presence or absence of M119 or M201 for 16 h at 4° C. before precipitation with avidin agarose and detection with PLCβ2,or Gβ antibodies. […] Same as 4E with PLCβ3.
(§2) Nevertheless, M119 and M201 were tested in in vitro reconstitution assays of Gβγ-dependent activation of PLCβ2, PLCβ3 and PI3Kγ and binding to GRK2. […] These are only two of multiple diverse compounds identified, indicating potential for multiple modes of Gβγ-dependent target modulation by these small molecules.

Gβ1γ2 = Gβ1γ2 (UniProt P54311+P63212); test: Competition phage ELISA: inhibition of SIGK-phage binding to immobilized biotinylated Gβ1γ2; design: made in house; host or cells: Sf9 insect cells (baculovirus; co-expressed with BirA and (His)6-Gαi1, from which βγ was eluted); species or system rat
Experimental: Phage ELISA assays used to assess peptide binding to wild-type and mutant b-βγ were performed according to standard methods (Smrcka and Scott (2002) Methods Enzymol. 344:557-76). Briefly, 1 μg streptavidin was immobilized in the well of a […] overnight at 4° C. The wells were blocked with 100 μL of 2% bovine serum albumin (BSA) in Tris-buffered saline (TBS) for 1 hour at 4° C. followed by three washes of IX TBS/0.5% TWEEN®. […] The wells were washed, followed by the addition of IxIO^6 to IxIO^10 phage particles and incubated at 4° C. for 3 hours. The wells were then washed six times with TBS/0.5% TWEEN® followed by addition of 40 μL of 1:5000 dilution of anti-M13 antibody (Pharmacia, Uppsala, Sweden) and incubated at room temperature for 1 hour. The wells were washed, followed by the addition of 40 μL of (2,2′-Azino-bis (3-ethylbenzthiazoline)-6-sulfonic acid (ABTS) and the colorimetric reaction was monitored at 405 nm. Nonspecific binding was subtracted for each reading.
A phage ELISA assay was used to determine whether small molecules identified in the computational screen could interact with the Gβy protein interaction surface. […] The screen was based on a reduction in the optical density (OD) of wells containing Gβγ subunits and phage. […] Three background wells contained no βy subunits.
As disclosed herein, biotinylated Gβy subunits were immobilized on the surface of a 96-well plate coated with streptavidin, phage displaying Gβγ-binding peptides were subsequently added and binding in the presence and absence of test compounds detected with an anti-phage antibody.
The phage ELISA assay was used to rapidly screen the ability of compounds to bind to the protein interaction “hot spot” based on the method of Scott et. al (Scott et al., 2001). This assay is performed in the presence of detergent (0.5% Tween) to eliminate non-specific compound aggregation artifacts.
Compounds/DMSO and 0.1×10^10 phage were added simultaneously and subsequently incubated for 1 h at room temperature. Plates were then washed with 1× Tris-buffered saline/0.5% Tween 20 and incubated with anti-M13, HRP-conjugated antibody (Amersham, Chalfont St. Giles, Buckinghamshire, UK). Phage binding was determined by monitoring A405 upon addition of 2,2′-azino-bis(3-ethylbenzothiazoline-6-sulfonic acid) (Sigma Aldrich).

PLCβ2 = test: Gβ1γ2-dependent activation of purified PLCβ2; type: biochemical
Experimental: as §1
(§3) The ability of NSC119910 analogs to selectively modulate activation PLC-β2 and -β3 was analyzed. In this assay, PLC-β2 and PLC-β3 were purified and PLC enzymatic activity was measured in the presence or absence of purified βy and in the presence or absence of analog.
as §2

PLCβ3 = test: Gβ1γ2-dependent activation of purified PLCβ3; type: biochemical; design: key to PLCb3: NE = No effect; conditions: for IC50: Table 4, read-out: PLC β3 IC50
Experimental: as §1, §3, §2

[1] = system: human μ opioid receptor (hMOR-CHO cells); test: Total inositol phosphate assay in hMOR-CHO cells; type: cell-based
Experimental: Chinese hamster ovary (CHO) cells stably expressing either the human κ (hKOR-CHO), δ (hDOR-CHO)(L. Toll, Stanford Research Institute, Palo Alto, Calif.) or μ (hMOR-CHO)(G. Uhl, National Institute on Drug Abuse, Baltimore, Md.) opioid receptor were used in the experiments. Cells in 6-well plates were labeled by adding 4 μCi of [^3H]inositol for 24 hr in inositol-free F-10 media, without serum. After labeling, LiCl was added directly to the labeling media at a final concentration of 10 mM. Ligands or peptides were added at the same time. The final volume of each well was 1 mL. The plates were put back in to the incubator at 37° C. for 30 min after which time the medium was aspirated and the plates were washed twice with 1× PBS. Ice-cold 50 mM formic acid, 1 mL, was added to the plates which were placed in the cold room at 4° C. for 30 min. After the incubation, the contents of the plates were applied to Dowex AG1-X8 columns and allowed to flow all the way through the column. The columns were washed, twice each, with 50 and 100 mM formic acid, for a total of four washes, followed by elution of the IP-containing fraction with 3 mL of 1.2 M ammonium formate/0.1 M formic acid. The eluted fraction was mixed with Scintisafe scintillation fluid, for high salt, and counted. The data are represented as the fold increase over control in total inositol phospates. All experiments were repeated three times and performed in duplicate. Control cells for each experiment were labeled with [^3H]inositol and LiCl, in the same manner as the treatment groups.

[2] = system: opioid-induced antinociception in mice; test: 55° C. warm-water tail-flick antinociception; type: in vivo, mouse; conditions: i.c.v., 20 min, 55° C. tail-flick; 95% CL in parentheses
Fαi1GDPβ1γ2 heterotrimer = target: T1, Fαi1GDPβ1γ2 heterotrimer (UniProt P54311+P63212); test: Dissociation of Fαi1 from preformed Fαi1β1γ2 heterotrimer (flow cytometry); type: binding; conditions: result in words
T1 construct: made in house; host or cells: b-βγ: Sf9 insect cells

[3] = system: carrageenan-induced paw edema in mice; test: Carrageenan-induced paw edema and neutrophil abundance
Gαi1-Gβ1γ2 interaction = target: T2, Gαi1-Gβ1γ2 interaction (UniProt P54311+P63212); test: Flow cytometry competition for FITC-Gαi1 binding to immobilized b-Gβ1γ2; conditions: peptides; read-out: IC50 for competition with Gαi binding to Gβ1γ2
T2 construct: made in house; host or cells: b-βγ: Sf9 insect cells
Experimental: (2003) supra; Sarvazyan, et al. (1998) J. Biol. […] Fluorescein-labeled Ga^ (Fan) was prepared in accordance with standard methods (Sarvazyan, et al. (1998) supra). Assays were used to determine peptide effects on Gα-Gβγ interactions included competition and dissociation assays (Ghosh, et al. (2003) supra). […] The bead-associated fluorescence was then recorded in a BD Biosciences […] flow cytometer. Data was corrected for background fluorescence and fit with a sigmoid dose response curve using Graph Pad Prism 4. To measure dissociation of Fan from b-Gβaγ2, 100 pM of Fa^ was incubated with 50 pM immobilized b-Gβ1γ2 at room temperature for 15-20 minutes.

O=C1c2ccccc2C(=O)c2c(Nc3cc4c5c(ccc6c7ccc8c9c(cc(Nc%10cccc%11c%10C(=O)c%10ccccc%10C%11=O)c(c3c56)c97)-c3ccccc3C8=O)C(=O)c3ccccc3-4)cccc21 [Compound M231]
IC50 (PI3Kγ; Table 19, effector IC50, read-out: PI 3-Kg): 13.5 µM
IC50 (Gβ1γ2; Table 8, read-out: IC50): 16 µM
IC50 (Gβ1γ2; Table 18, compounds identified in Elisa screen, read-out: IC50): 16 µM
IC50 (Gβ1γ2; Table 19, read-out: ELISA): 27 µM
IC50 (PLCβ2; Table 19, effector IC50, read-out: PLCb2): 167 µM
PLCb3 (PLCβ3; Table 19, effector IC50): NE

C[C@@H](NC(=O)[C@@H](N)Cc1ccc(O)cc1)C(=O)NCC(=O)N(C)[C@@H](Cc1ccccc1)C(=O)NCCO [DAMGO, [D-Ala^2, N-Me-Phe^4, Gly^5-ol]-enkephalin]
increase in total IP compared to control [1]: 4 fold
ED50 of opioid agonist alone [2]: 0.07 nmol

C[C@H](NC(=O)[C@H](CS)NC(=O)[C@@H](N)CO)C(=O)N[C@@H](CCCNC(=N)N)C(=O)N[C@@H](Cc1ccccc1)C(=O)N[C@@H](Cc1ccccc1)C(=O)NCC(=O)N[C@H](C(=O)N1CCC[C@H]1C(=O)NCC(=O)N[C@@H](CS)C(=O)N[C@H](C(=O)O)[C@@H](C)O)[C@@H](C)O [SCAR]
promotion/acceleration of heterotrimer dissociation (Fαi1GDPβ1γ2 heterotrimer): could not promote dissociation of a preformed heterotrimer; also recorded: the same as the intrinsic rate

CC[C@H](C)[C@H](NC(=O)[C@H](CC(N)=O)NC(=O)[C@H](CC(C)C)NC(=O)[C@H](C)NC(=O)[C@H](C)NC(=O)[C@H](CCCNC(=N)N)NC(=O)[C@@H](NC(=O)[C@@H](N)CO)[C@@H](C)CC)C(=O)N[C@@H](CC(C)C)C(=O)NCC(=O)N[C@@H](Cc1ccc(O)cc1)C(=O)N1CCC[C@H]1C(=O)N[C@@H](CC(=O)O)C(=O)N[C@@H](Cc1ccc(O)cc1)C(=O)N[C@@H](CC(=O)O)C(=O)O [SIRK(Lys4Ala)]
promotion/acceleration of heterotrimer dissociation (Fαi1GDPβ1γ2 heterotrimer): failed to accelerate heterotrimer dissociation

Nc1ccc(Nc2cc(S(=O)(=O)O)c(N)c3c2C(=O)c2ccccc2C3=O)cc1 [drawing 55]
IC50 (PLCβ2; Table 3, read-out: PLCβ2 IC50): 75 µM

Nc1cccc(Nc2cc(S(=O)(=O)O)c(N)c3c2C(=O)c2ccccc2C3=O)c1 [drawing 56]
IC50 (PLCβ2; Table 3, read-out: PLCβ2 IC50): 14 µM

Nc1ccc(-c2ccc(Nc3cc(S(=O)(=O)O)c(N)c4c3C(=O)c3ccccc3C4=O)cc2)c(S(=O)(=O)O)c1 [drawing 57]
IC50 (PLCβ2; Table 3, read-out: PLCβ2 IC50): > 30 µM

Nc1c(S(=O)(=O)O)cc(Nc2cccc(S(N)(=O)=O)c2)c2c1C(=O)c1ccccc1C2=O [drawing 58]
IC50 (PLCβ3): 58 µM

Nc1ccc(Nc2cc(S(=O)(=O)O)c(N)c3c2C(=O)c2ccccc2C3=O)cc1 [drawing 59]
IC50 (PLCβ3): 12 µM

Nc1cccc(Nc2cc(S(=O)(=O)O)c(N)c3c2C(=O)c2ccccc2C3=O)c1 [drawing 60]
IC50 (PLCβ3): 15 µM

Nc1ccc(-c2ccc(Nc3cc(S(=O)(=O)O)c(N)c4c3C(=O)c3ccccc3C4=O)cc2)c(S(=O)(=O)O)c1 [drawing 61]
IC50 (PLCβ3): 62 µM

Nc1c(S(=O)(=O)O)cc(Nc2cccc(S(N)(=O)=O)c2)c2c1C(=O)c1ccccc1C2=O [drawing 62]
IC50 (PI3Kγ; Table 5, read-out: PI3Kγ IC50): 10 µM

Nc1ccc(Nc2cc(S(=O)(=O)O)c(N)c3c2C(=O)c2ccccc2C3=O)cc1 [drawing 63]
IC50 (PI3Kγ; Table 5, read-out: PI3Kγ IC50): 2.5 µM

Nc1cccc(Nc2cc(S(=O)(=O)O)c(N)c3c2C(=O)c2ccccc2C3=O)c1 [drawing 64]
IC50 (PI3Kγ; Table 5, read-out: PI3Kγ IC50): 6 µM

Nc1ccc(-c2ccc(Nc3cc(S(=O)(=O)O)c(N)c4c3C(=O)c3ccccc3C4=O)cc2)c(S(=O)(=O)O)c1 [drawing 65]
IC50 (PI3Kγ; Table 5, read-out: PI3Kγ IC50): 16 µM

COc1ccc2c(c1)c(CC(=O)O)c(C)n2C(=O)c1ccc(Cl)cc1 [indomethacin]
effect on carrageenan-induced paw edema ([3]; i.p. 1 h before carrageenan, gallein 100 mg/kg, indomethacin 2.5 mg/kg, result in words): sharply reduced
reduction of exudate volume ([3]; i.p. pretreatment, 2 h after carrageenan): approximately 75%

COC(=O)/C=C/C(=O)N[C@@H]1CC[C@@]2(O)[C@H]3Cc4ccc(O)c5c4[C@@]2(CCN3CC2CC2)[C@H]1O5 [β-FNA, β-funaltrexamine]
effect on DAMGO- and morphine-dependent IP production [1]: attenuated

SIRKALNILAYPDYD [SIRK(GIyIOAIa)]
promotion/acceleration of heterotrimer dissociation (Fαi1GDPβ1γ2 heterotrimer): could still accelerate heterotrimer dissociation
IC50 (Gαi1-Gβ1γ2 interaction): ~80 µM

From patent US8975259B2, “Compositions and methods for inhibiting G protein signaling” (University of Rochester, priority 2007, dated 2015)
